Reference: US7629169B2, “Methods for the production of platelet-derived growth factor-responsive neural precursor cells” (Stem Cell Therapeutics Corp., priority 2004, dated 2009)

Key:
[1] = tested on: PDGF-responsive neural precursors (PRPs) from dissociated E14 MGE/LGE; experiment: Primary neurosphere generation from dissociated E14 ganglionic eminences; format: cell-based, mouse
Description: Cell culture. The culture medium (MHM) was composed of DMEM/F-12 (1:1) including HEPES buffer (5 mM), glucose (0.6%), sodium bicarbonate (3 mM), glutamine (2 mM), insulin (25 μg/ml), transferrin (100 μg/ml), progesterone (20 nM), putrescine (10 μM), and sodium selenite (30 nM; all from Sigma, St. Louis, Mo., except glutamine from Invitrogen, Carlsbad, Calif.). The lateral, medial, or both ganglionic eminences (LGE, MGE or both) were removed from Embryonic Day 14 (E14) mouse embryos and mechanically dissociated with a fire-polished Pasteur pipette in MHM. Cells were plated at a density of […] unless otherwise indicated.
For neurosphere generation, PDGF-AA (100 ng/ml; Peprotech, Rocky Hill, N.J.), PDGF-BB (100 ng/ml; Peprotech), EGF (20 ng/ml; Peprotech), FGF2 (20 ng/ml; R&D [Minneapolis, Minn.])+heparan sulfate (2 μg/ml; HS; R&D), SHH (2 ug/ml; R&D), cyclopamine (5 μM; Toronto Research Chemicals, North York, Ontario), and/or DMSO (0.1%; carrier) was added to the MHM. MHM used to generate neurospheres also contained 2% B27 (Invitrogen).
[…] is one of the earliest markers of OLPs, and signaling by PDGF-AA is required for the generation of most oligodendrocytes (Fruttiger et al., Development 126:457 (1999)). Increasing concentrations of PDGF-AA were used to determine whether stimulation of dissociated E14 medial and lateral ganglionic eminences. (MGE and LGE, respectively) results in generation of neurospheres. The neurosphere assay was used because manipulation of primary cells is minimal compared to the immunopanning procedures used to isolate O-2A progenitors.
The effect of brain-derived neurotrophic factor (BDNF), neurotrophin-3 (NT-3), and nerve growth factor (NGF) on PRPs was determined. Cells were cultured as previously reported (Chojnacki et al., J Neurosci 24(48):10888 2004) in the presence of various combinations of PDGF, brain-derived neurotrophic factor (BDNF), NT-3, nerve growth factor (NGF), and the effects on neurosphere generation characterized. MHM is the defined medium used in cultures without growth factor.

NSC = experiment: FGF2-induced NSC proliferation; format: cell-based; details: 1 μM SU5402
[2] = tested on: PDGF-generated neurospheres; experiment: Differentiation of primary PDGF-AA-generated neurospheres, immunocytochemistry; format: cell-based, mouse
[3] = tested on: PRPs (single primary neurospheres); experiment: Self-renewal by single sphere dissociation (secondary neurospheres); format: cell-based; details: for secondary neurospheres per single primary PDGF-generated neurosphere: passaged into the named factor(s)
Description: Self-renewal capacity was examined by single sphere dissociation. Briefly, single 6 DIV neurospheres of equivalent size that were generated in the presence of EGF, PDGF-AA, or PDGF-AA and SHH were transferred into 96 well plates and mechanically dissociated. Dissociates were cultured in MHM supplemented with EGF, FGF2 (includes 2 μg/ml HS), FGF2 and SHH, PDGF-AA, PDGF-AA and SHH, PDGF-AA and FGF2, PDGF-AA and FGF2 and SHH, PDGF-AA and DMSO (0.1%), PDGF-AA and SHH, or PDGF-AA and FGF2 and cyclopamine. The number of secondary neurospheres generated was counted after 9 DIV.

PRPs = experiment: GFP-expressing PDGF neurosphere dissociates plated on EGF-generated feeder layer; format: cell-based, mouse; details: PDGF with EGF feeder layer
Source text: To determine if extrinsic factors could promote self-renewal of PRPs, individual, 7 DIV, GFP-expressing, PDGF-generated neurospheres were isolated, dissociated in the presence of PDGF-AA, and differentiated on coverslips that had been plated 2 days earlier with or without 0.2×10^6 cells/ml of EGF-generated cells from dissociated primary EGF neurospheres. EGF-generated feeder cells had been allowed to differentiate for 2 days in the presence of 1% FBS. Plates were rinsed 3× with MHM prior to the addition of GFP-expressing, PDGF-generated dissociates. Numbers of adherent clones and cells per clone were assessed by GFP expression. All images were captured with a Photometrics Coolsnap digital camera (Tuscon, Ariz.) mounted on a Leica Microsystems DMIL inverted fluorescence microscope with Coolsnap V1.2.0 software.
However, these studies employed a defined culture media in which some factors required for self-renewal may be missing. To further study PRP self-renewal, primary PDGF neurospheres from the E14 MGEs of TgN(GFPU)5Nagy mice were grown for 7 DIV, individual neurospheres dissociated and transferred from single neurospheres onto poly-L-omithine coated coverslips that had been plated with or without 200,000 primary 7 DIV EGF-generated progeny 2 days earlier.

dissociated E14 MGEs = experiment: Clonality test: GFP and CD1 E14 MGE cells co-cultured 1:1 in PDGF-AA; format: cell-based, mouse; details: 100 ng/ml PDGF-AA, 20,000 cells/ml, GFP:CD1 1:1
Source text: PDGF is also known to have chemotaxic effects on cortical NSCs (Forsberg-Nilsson et al., J Neurosci Res 53:521 (1998)), and thus it was possible that neurospheres generated under PDGF stimulation resulted from the directed migration of NSCs along the culture dish into clumps that resembled clonally-derived neurospheres. This possibility was studied, as previously described (Represa et al., Eur J Neurosci 14:452 (2001)), by culturing dissociated E14 MGEs from CD1 and TgN(GFPU)5Nagy (ubiquitous green fluorescent protein [GFP]-expressing) mice together, 1:1, at 20,000 cells/ml, and in the presence of 100 ng/ml of PDGF-AA. If cell clumping generates the majority of the neurospheres, then most neurospheres should contain both GFP- and non-GFP-expressing cells. However, 95±11% of the neurospheres were not chimeric for GFP expression (p<0.01; Tukey HSD; n=3) (FIGS. 1C-D), and there was no difference in the number of GFP- or non-GFP-expressing neurospheres produced (p>0.65; Tukey HSD; n=3) (FIG. 1D).

[4] = 6 DIV neurospheres differentiated 3 DIV

Compound: Cc1c[nH]c(/C=C2\C(=O)Nc3ccccc32)c1CCC(=O)O [SU5402, reference compound]
- primary PDGF neurosphere formation ([1]; 1 μM SU5402): unaffected
- block of FGF2-induced NSC proliferation (NSC): 90%

Compound: N[C@@H](Cc1cc(I)c(Oc2ccc(O)c(I)c2)c(I)c1)C(=O)O [T3, triiodothyronine]
- increase in differentiation of oligodendrocytes (O4) ([2]; 20 ng/ml T3, 2 DIV, vs 1% FBS): 5 fold
- MBP-only clones ([2]; 2 DIV): increased the number of MBP-only clones
- MBP-expressing cells produced per clone ([2]; 2 DIV, vs 1% FBS, BMP-2, and T3 and BMP-2): significantly increased the number of MBP-expressing cells produced per clone
- GFAP-immunoreactive astrocytes per neurosphere [2, 4]: no astrocytes
- MBP-immunoreactive oligodendrocytes per neurosphere [2, 4]: 3.9±0.4

Compound: CC1=C2C[C@H]3[C@@H](CC=C4C[C@@H](O)CC[C@@]43C)[C@@H]2CC[C@]12O[C@@H]1C[C@H](C)CN[C@H]1[C@H]2C [cyclopamine, reference compound]
- neurosphere size ([1]; 5 μM cyclopamine with 100 ng/ml PDGF-AA): smaller
- reduction in number of PDGF-AA-generated neurospheres ([1]; 5 μM cyclopamine with 100 ng/ml PDGF-AA, MGE 10,000 cells/ml, vs PDGF-AA+DMSO): 5 fold
- non-specific toxic effect ([1]; 5 μM cyclopamine, phase-bright differentiating cells present): likely not a result of a non-specific toxic effect
- secondary neurospheres per primary PDGF-generated neurosphere ([3]; cyclopamine added to PDGF and FGF2): 3±1

Compound: EGF: epidermal growth factor, 20 ng/ml; Peprotech (NSDSECPLSHDGYCLHDGVCMYIEALDKYACNCVVGYIGERCQYRDLKWWELR; Epidermal growth factor; UniProt P01133 971-1023, looked up)
- secondary neurospheres per single primary PDGF-generated neurosphere [3]: 3±1

Compound: FGF2: fibroblast growth factor 2, 20 ng/ml, with heparan sulfate 2 μg/ml
- secondary neurospheres per single primary PDGF-generated neurosphere [3]: 3±1
- secondary neurospheres / self-renewal compared with passage in PDGF ([3]; primary PDGF-generated neurospheres passaged into the named factor(s)): No increase in self-renewal

Compound: PDGF-AA: platelet-derived growth factor AA, 100 ng/ml; Peprotech
- neurospheres produced ([1]; 100 ng/ml PDGF-AA, dissociated E14 MGE and LGE, n=3): 12±1 neurospheres per 10,000 plated cells
- number of primary neurospheres generated ([1]; dissociated MGEs, SHH 2 μg/ml, n=8): 60±9
- neurosphere production versus concentration ([1]; increasing concentrations of PDGF-AA): induced neurosphere production in a dose-dependent manner
- adherent GFP-labeled clones (PRPs): many clones of GFP-labeled cells that contained greater than 10 cells
- neurospheres not chimeric for GFP expression (dissociated E14 MGEs): 95±11%
- secondary neurospheres per single primary EGF-generated neurosphere ([3]; passaged into PDGF-AA): 26±5
- secondary neurospheres per single primary PDGF-generated neurosphere [3]: 1±1
